Data as given in patent publication US4536397A, “Antibiotics, neoviridogriseins, and their method of production” (Sanraku-Ocean Co., Ltd., priority 1983, dated 1985).
≈ marks a conversion by molar mass, not a printed value. Starred links: 1 amine or outer side, 2 acyl side, 3 side chain; linkers in the order of their positions; H or OH if unused. Positions of bridges follow the written chain, without caps; N, C: chain ends. Non-standard residues stand in square brackets, D forms with d. Residues, ends and D or L forms follow the SMILES beside them. *: point of attachment. X2 = CC(C)[C@H](C)[C@@H](C(=O)[*:2])N(C)[*:1]; d(cisHyp) = O=C(O)[C@H]1C[C@@H](O)CN1; X1 = CC(C)C(C)C(C(=O)[*:2])N(C)[*:1]; Picolinoyl(3-OH) = O=C(c1ncccc1O)*; NMePhg = CN[CH](C(=O)O)c1ccccc1; Hyp = O=C(O)[CH]1C[CH](O)CN1; Abu = CC[CH](N)C(=O)O; Sar = CNCC(=O)O

Key:
[1] = test system: Staphylococcus aureus; assay: MIC, tube dilution method; format: cell-based; conditions: BHI broth
[2] = test system: Staphylococcus sp.; assay: MIC, tube dilution method; format: cell-based; conditions: BHI broth
[3] = test system: Diplococcus pneumoniac type 1; assay: MIC, tube dilution method; format: cell-based, Diplococcus pneumoniae; conditions: BHI broth containing 10% horse blood
[4] = test system: Streptococcus pyogenes; assay: MIC, tube dilution method; format: cell-based; conditions: BHI broth containing 10% horse blood
[5] = test system: Sarcina lutea; assay: MIC, tube dilution method (incl. synergism with griseoviridin); format: cell-based; conditions: Table 1; BHI broth
[6] = test system: Bacillus subtilis ATCC 6633; assay: MIC, tube dilution method; format: cell-based; conditions: BHI broth
[7] = test system: Salmonella gallinanum; assay: MIC, tube dilution method; format: cell-based; conditions: BHI broth
[8] = test system: Escherichia coli; assay: MIC, tube dilution method; format: cell-based; conditions: BHI broth
[9] = test system: Pseudeomonas aeruginosa; assay: MIC, tube dilution method; format: cell-based; conditions: BHI broth
[10] = test system: Proteus vulgaris; assay: MIC, tube dilution method; format: cell-based; conditions: BHI broth
[11] = test system: Candida albicans; assay: MIC, tube dilution method; format: cell-based; conditions: malt extract-yeast extract medium
[12] = Solubility in solvents; format: physicochemical; conditions: for solubility in organic solvents: methanol, ethanol, propanols, n-butanol, dioxane, acetates, ketones, benzene, toluene, chlorinated solvents, DMF, DMSO
[13] = Growth promotion in chicks on rye diet, 11 days; format: in vivo; conditions: diet conc 100 ppm
Procedure: was tested in vivo by incorporation in the diet of growing chicks. One-day old cockerels, 15 birds per treatment were used. The chicks were maintained for 11 days on a feed containing about 55% rye grain, supplemented with vitamins, minerals, fat and protein sources. The high content of rye grain normally gives poor to moderate growth, and this diet is a standard one used for screening growth promoters and antibiotic feed additives. Penicillin (100 ppm) was used as a positive control. Feed/Gain ratio is grams feed consumed per gram of weight gained. Body weight ratio is the ratio of chick body weight at the end of the 11 day study to the initial body weight. The last column is the average gain per bird (in grams).

[14] = test system: Mycoplasma gallisepticum KP13; assay: MIC, dilution method, Mycoplasma; format: cell-based; parameters: unit not given beside the values; conditions: Table 4; PPLO enrichment broth (Eiken)
Procedure: (§1) The MIC were determined by the dilution method.
Medium (1): PPLO enrichment broth (Eiken, Japan)
(§2) was tested in vitro agains several Mycoplasma strains.

[15] = test system: Mycoplasma agalactiae PG 2; assay: MIC, dilution method, Mycoplasma; format: cell-based; conditions: Table 4; PPLO broth (Chanock's medium; Difco)
Procedure: as §1
(§3) (2): PPLO broth (Chanock's medium; Difco)
as §2

[16] = test system: Mycoplasma fermentans; assay: MIC, dilution method, Mycoplasma; format: cell-based; conditions: Table 4; PPLO broth (Chanock's medium; Difco)
Procedure: as §1, §3, §2

[17] = test system: Mycoplasma pulmonis PG 22; assay: MIC, dilution method, Mycoplasma; format: cell-based; conditions: Table 4; PPLO broth (Chanock's medium; Difco)
Procedure: as §1, §3, §2

[18] = test system: Staphylococcus aureus; assay: MIC repeated with a far lower dilution rate; format: cell-based; conditions: far lower dilution rate, brain heart infusion broth
Excerpt: This MIC experiment was based on the two-fold dilutions. To differentiate neoviridogrisein II and viridogrisein in their antibiotic activity, the MIC determination was repeated with a far lower dilution rate.
Medium: brain heart infusion broth

SMILES	MIC ([1]; strain 209P) [µg/mL]	MIC ([1]; strain (BX-1633)(PC)r) [µg/mL]	MIC ([1]; strain (EM)r) [µg/mL]	MIC ([1]; strain (EM, CM, SM, PC, TC)r) [µg/mL]	MIC ([1]; strain (EM, OM)r) [µg/mL]	MIC ([1]; strain (PC, EM, NM)r) [µg/mL]	MIC ([1]; strain (PC, TC, EM, LM)r 1) [µg/mL]	MIC ([1]; strain (PC, TC, EM, LM)r 2) [µg/mL]	MIC ([1]; strain (SM, STH)r) [µg/mL]	MIC ([1]; strain (STH)r) [µg/mL]	MIC ([1]; strain (TC, CP, PC)r) [µg/mL]	MIC ([1]; strain (TC, EM, LM, CP)r) [µg/mL]	MIC ([1]; strain Russell(PC)r) [µg/mL]	MIC ([1]; strain Smith) [µg/mL]	MIC ([2]; Staphylococcus sp. (PC)r) [µg/mL]	MIC ([2]; Staphylococcus sp.) [µg/mL]	MIC [3] [µg/mL]	MIC [4] [µg/mL]	MIC [5] [µg/mL]	MIC [6] [µg/mL]	other results
CCC1NC(=O)C(C(C)C(C)C)N(C)C(=O)CN(C)C(=O)C2CC(O)CN2C(=O)C(CC(C)C)NC(=O)C(NC(=O)c2ncccc2O)C(C)OC(=O)C(c2ccccc2)N(C)C1=O (stereo not drawn) [NV III, neoviridogrisein III] ({Picolinoyl(3-OH)}-TL[Hyp][Sar][X1][Abu][NMePhg]; ester 1-C; configuration not given here)	0.2 (≈ 0.224 µM)	0.4 (≈ 0.448 µM)	0.4 (≈ 0.448 µM)	0.4 (≈ 0.448 µM)	0.8 (≈ 0.896 µM)	0.4 (≈ 0.448 µM)	6.25 (≈ 7 µM)	6.25 (≈ 7 µM)	0.2 (≈ 0.224 µM)	1.6 (≈ 1.79 µM)	0.4 (≈ 0.448 µM)	6.25 (≈ 7 µM)	0.4 (≈ 0.448 µM)	0.2 (≈ 0.224 µM)	0.8 (≈ 0.896 µM)	0.8 (≈ 0.896 µM)	0.2 (≈ 0.224 µM)	0.4 (≈ 0.448 µM)	0.4	0.8 (≈ 0.896 µM)	MIC [7]: > 25 µg/mL; MIC [8]: > 25 µg/mL; MIC [9]: > 25 µg/mL; MIC [10]: > 25 µg/mL; MIC [11]: > 25 µg/mL; solubility in organic solvents [12]: soluble; solubility in petroleum ether and hexane [12]: practically insoluble; solubility in water and ethyl ether [12]: hardly soluble
CC1(C)S[C@@H]2[C@H](NC(=O)Cc3ccccc3)C(=O)N2[C@H]1C(=O)O [Penicillin]	–	–	–	–	–	–	–	–	–	–	–	–	–	–	–	–	–	–	–	–	FEED/GAIN RATIO ([13]; 11 days, grams feed consumed per gram of weight gained): 1.197; AVG B.W.GAIN ([13]; average gain per bird, 11 days): 163.20 GMS; BODY WEIGHT RATIO ([13]; body weight at end of 11 days to initial): 5.012
CC(C)C[C@H]1NC(=O)[C@@H](NC(=O)c2ncccc2O)[C@@H](C)OC(=O)[C@H](c2ccccc2)N(C)C(=O)[C@H](C)NC(=O)[C@H]([C@@H](C)C(C)C)N(C)C(=O)CN(C)C(=O)[C@H]2C[C@@H](O)CN2C1=O [VG, viridogrisein] ({Picolinoyl(3-OH)}-T[dL][d(cisHyp)][Sar][X2]A[NMePhg]; ester 1-C)	0.2 (≈ 0.228 µM)	0.4 (≈ 0.455 µM)	0.4 (≈ 0.455 µM)	0.4 (≈ 0.455 µM)	0.8 (≈ 0.91 µM)	0.8 (≈ 0.91 µM)	6.25 (≈ 7.11 µM)	6.25 (≈ 7.11 µM)	0.4 (≈ 0.455 µM)	1.6 (≈ 1.82 µM)	0.4 (≈ 0.455 µM)	6.25 (≈ 7.11 µM)	0.4 (≈ 0.455 µM)	0.4 (≈ 0.455 µM)	0.4 (≈ 0.455 µM)	0.8 (≈ 0.91 µM)	0.4 (≈ 0.455 µM)	0.4 (≈ 0.455 µM)	0.2	0.8 (≈ 0.91 µM)	MIC [7]: > 25 µg/mL; MIC [8]: > 25 µg/mL; MIC [9]: > 25 µg/mL; MIC [10]: > 25 µg/mL; MIC [11]: > 25 µg/mL; MIC [14]: 0.10; MIC [15]: 0.78; MIC [16]: < 0.05; MIC [17]: 1.56; solubility in organic solvents [12]: soluble; solubility in petroleum ether and hexane [12]: practically insoluble; solubility in water and ethyl ether [12]: hardly soluble; MIC ([18]; strain 209 P): 0.133 µg/mL (≈ 0.151 µM); MIC ([18]; strain (EM, CM, SM, PC, TC)r): 0.334 µg/mL (≈ 0.38 µM); MIC ([18]; strain (TC, CP, PC)r): 0.334 µg/mL (≈ 0.38 µM); MIC ([18]; strain Bx-1633(PC)r): 0.267 µg/mL (≈ 0.304 µM); MIC ([18]; strain Russell(PC)r): 0.267 µg/mL (≈ 0.304 µM); MIC ([18]; strain Smith): 0.267 µg/mL (≈ 0.304 µM)
